The record followed here is patent US20260217732A1, “WRN INHIBITOR” (SUZHOU PUHE BIOPHARMA CO., LTD., priority 2022, published 2026).

For one experiment, the target named is T1, WRN enzyme (Homo sapiens, UniProt Q14191).
T1 construct: 10 μL (2×) of WRN enzyme solution was added
Description: WRN helicase hydrolysis (unwinding) of double-stranded DNA, fluorescence assay. Format: biochemical. The conditions noted are these: 30 min pre-incubation, 60 min reaction. As for the experimental part:
• The molecules of the present disclosure were tested for their activities on the WRN helicase hydrolysis of double-stranded DNA (Table 1).
A working solution to be tested and a buffer were prepared. The compound to be tested was dissolved in DMSO and subjected to 4× dilution (with 10 μM final concentration as the starting concentration). 0.2 μL of the solution of the compound to be tested was added to the 384-well plate and 10 μL (2×) of WRN enzyme solution was added. The solution was incubated in the dark for 30 minutes. Then, 10 μL of a substrate detection solution containing double-stranded DNA was added to initiate the reaction (the DNA has a length of 19 bp, and labeled with TAMRA and BHQ2 at 3′ and 5′-ends, respectively). The solution was incubated at room temperature for 60 minutes. The inhibitory activities (IC50) against WRN enzyme were calculated based on the change of Ex530/Em590 in the blank group (DMSO) and the compound group.

Experiment [1] deals with SW48 colorectal cancer cells. Description: 2D antiproliferation on MSI-H SW48 cells, CTG, 5 days. Format: cell-based. The note with it: for IC50 / inhibition at 38.15 pM / inhibition at 0.000152588 µM / inhibition at 0.000610352 µM / inhibition at 0.00244141 µM / inhibition at 0.00976562 µM / inhibition at 0.0390625 µM / inhibition at 0.15625 µM / inhibition at 0.625 µM / inhibition at […] / inhibition at 10 µM: Homo sapiens; for IC50: 120 h, SW48 MSI-H, 5 days; for inhibition at 38.15 pM: SW48, 0.038146973 nM; for inhibition at 0.000152588 µM: SW48, 0.152587891 nM; for inhibition at 0.000610352 µM: SW48, 0.610351563 nM; for inhibition at 0.00244141 µM: SW48, 2.44140625 nM; for inhibition at 0.00976562 µM: SW48, 9.765625 nM; for inhibition at 0.0390625 µM: SW48, 39.0625 nM; for inhibition at 0.15625 µM: SW48, 156.25 nM; for inhibition at 0.625 µM: SW48, 625 nM; for inhibition at […]: SW48, 2500 nM; for inhibition at 10 µM: SW48, 10000 nM. As for the experimental part: The molecules of the present disclosure were tested for their anti-proliferative activity on MSI-H tumor cells.
SW48 colorectal cancer cells with MSI were cultured in a RMI1640 medium containing 10% FBS and 1% penicillin-streptomycin, and the mixture was cultured in a 37° C., 5% CO2 incubator. 40 μL of cell suspension was added to each well of a 384-well microplate. […] of compounds with different concentrations were added to each well using Echo, and the mixtures were cultured in a 37° C., 5% CO2 incubator for 5 days. 40 μL of CTG solution (Promega, Cat No. G7573) was added to each well and incubated in a 37° C., 5% CO2 incubator in the dark for 30 minutes. The luminescence value was read using an Envision multi-function microplate reader (Perkin Elmer, catalog number Envision 2104). The optical signal is proportional to the amount of ATP in the system, while the ATP content directly characterizes the number of viable cells in the system.

For experiment [2], the system named is HT-29 colorectal cancer cells. The experiment is described as follows: 2D antiproliferation on MSS HT-29 cells, CTG, 5 days. Format: cell-based. The note with it: Homo sapiens, 120 h, HT-29 MSS. How it is done: The molecules of the invention were tested for their anti-proliferative activities on MSS tumor cells.
HT-29 colorectal cancer cells with MSS were cultured in a McCoy's 5A medium containing 10% FBS and 1% penicillin-streptomycin in a 37° C., 5% CO2 constant temperature incubator. 40 μL of cell suspension was added to each well of a 384-well microplate. […] of compounds with different concentrations were added to each well using Echo. The mixtures were cultured in a 37° C., 5% CO2 constant temperature incubator for 5 days. 40 μL of CTG solution (Promega, Cat No. G7573) was added to each well, and the mixture was incubated in a 37° C., 5% CO2 constant temperature incubator for 30 minutes in the dark. The luminescence value was read using an Envision multi-function microplate reader (Perkin Elmer, catalog number Envision 2104). The optical signal is proportional to the amount of ATP in the system, while the ATP content directly characterizes the number of viable cells in the system.

Experiment [3] deals with SW48 (MSI-H) colorectal cancer tumor cells. The experiment is described as follows: In vivo efficacy, SW48 xenograft in nude mice. The arrangement: species or system BALB/c nude mice. The note with it: 120 mg/kg, QD, oral. As for the experimental part: In vivo efficacy experiment in BALB/C nude mice. Details are as follows:
SW48 (MSI-H) colorectal cancer tumor cells were cultured (in an L15 medium with 10% fetal bovine serum), and inoculated into 6-8 week old female BALB/c nude mice (with body weight of about 20 g). All the mice were inoculated subcutaneously. The mice were raised in an SPF-grade experimental environment, and all the mice were free to take commercially certified standard diets. When the tumors grew to an average volume of about 160 mm^3 in mice, the test compound was orally administered daily. […] The tumor volume was measured with a two-dimensional caliper three times a week, and the animals were weighed every day. […] The volume calculation formula is: V=1/2a*b^2, where a represents the long diameter of the tumor and b represents the short diameter of the tumor.

[4] abbreviates: read-out: Average Value/Inhibition Rate.
Setting [5] is: read-out: Test 1/Inhibition Rate.
Where [6] appears, read: read-out: Test 2/Inhibition Rate.

Like-named read-outs stand apart in the source and are kept apart here. Some results are limits rather than exact numbers.

T1 sequence (Q14191 whole entry): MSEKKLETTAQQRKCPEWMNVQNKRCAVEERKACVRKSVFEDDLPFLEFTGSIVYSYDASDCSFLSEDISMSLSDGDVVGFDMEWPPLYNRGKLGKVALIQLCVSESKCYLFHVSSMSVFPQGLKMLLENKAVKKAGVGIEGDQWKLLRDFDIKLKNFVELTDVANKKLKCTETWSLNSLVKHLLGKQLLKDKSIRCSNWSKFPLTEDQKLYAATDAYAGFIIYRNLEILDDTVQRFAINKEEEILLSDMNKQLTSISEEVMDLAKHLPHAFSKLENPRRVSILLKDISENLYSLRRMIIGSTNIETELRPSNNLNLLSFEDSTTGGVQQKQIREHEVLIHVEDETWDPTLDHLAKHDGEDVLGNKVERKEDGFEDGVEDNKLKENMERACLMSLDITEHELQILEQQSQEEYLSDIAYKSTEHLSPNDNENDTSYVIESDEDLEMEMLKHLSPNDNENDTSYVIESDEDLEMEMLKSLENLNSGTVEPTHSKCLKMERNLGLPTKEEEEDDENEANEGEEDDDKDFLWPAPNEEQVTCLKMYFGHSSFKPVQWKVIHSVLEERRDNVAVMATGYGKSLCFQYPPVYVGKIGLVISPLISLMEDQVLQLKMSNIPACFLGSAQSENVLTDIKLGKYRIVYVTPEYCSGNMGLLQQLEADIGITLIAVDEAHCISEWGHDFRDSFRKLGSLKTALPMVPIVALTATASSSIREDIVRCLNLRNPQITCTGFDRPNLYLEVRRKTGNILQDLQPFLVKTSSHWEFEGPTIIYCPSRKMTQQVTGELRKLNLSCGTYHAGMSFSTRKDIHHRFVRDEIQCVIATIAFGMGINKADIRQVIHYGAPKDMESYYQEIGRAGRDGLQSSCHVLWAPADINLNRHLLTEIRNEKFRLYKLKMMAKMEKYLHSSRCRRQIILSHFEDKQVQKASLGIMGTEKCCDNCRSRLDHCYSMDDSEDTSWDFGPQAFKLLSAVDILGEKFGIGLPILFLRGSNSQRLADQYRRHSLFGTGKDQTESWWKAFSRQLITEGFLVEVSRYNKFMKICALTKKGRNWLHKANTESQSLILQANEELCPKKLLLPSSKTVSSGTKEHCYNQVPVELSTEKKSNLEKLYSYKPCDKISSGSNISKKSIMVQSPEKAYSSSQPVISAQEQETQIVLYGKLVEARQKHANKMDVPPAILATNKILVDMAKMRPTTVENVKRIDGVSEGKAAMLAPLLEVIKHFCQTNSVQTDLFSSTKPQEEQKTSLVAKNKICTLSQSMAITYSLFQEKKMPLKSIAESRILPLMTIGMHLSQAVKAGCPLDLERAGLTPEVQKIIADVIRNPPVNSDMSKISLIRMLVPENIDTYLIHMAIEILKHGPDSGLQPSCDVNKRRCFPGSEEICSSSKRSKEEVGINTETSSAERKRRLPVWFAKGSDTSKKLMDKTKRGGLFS

On WRN enzyme, `CCc1c(N2CCN(C(=O)c3ncnc(C)c3O)CC2)c(=O)n2nc(-c3cc4c(s3)COC4)nc2n1CC(=O)Nc1ccc(C(F)(F)F)cc1C` [P29] showed an IC50 of 0.0021 µM. The “inhibitory activity on SW48 cells” value in experiment [1] (39 nM) is listed as “high inhibitory activity”. The compound further gave an IC50 in experiment [1] of 0.032 µM. Further, in experiment [1] (setting [4]), the inhibition at 38.15 pM was found to be 18.3%, the inhibition at 0.000152588 µM was determined as 25.6%, the inhibition at 0.000610352 µM was determined as 14.7% and the inhibition at 0.00244141 µM was 19.8%. For the same compound, in experiment [1] (setting [4]), the inhibition at 0.00976562 µM came out at 21.2%, the inhibition at 0.0390625 µM stood at 70.9%, the inhibition at 0.15625 µM was 97.3% and the inhibition at 0.625 µM is 99.4%. In experiment [1] (setting [4]), the inhibition at […] was 99% and the inhibition at 10 µM amounted to 99.8%. Also, in experiment [1] (setting [5]), the inhibition at 38.15 pM came out at 18%, the inhibition at 0.000152588 µM came to 26.1%, the inhibition at 0.000610352 µM is 19.4% and the inhibition at 0.00244141 µM amounted to 12.8%. Further, in experiment [1] (setting [5]), the inhibition at 0.00976562 µM was determined as 17.4%, the inhibition at 0.0390625 µM was determined as 70.9%, the inhibition at 0.15625 µM is 96.5% and the inhibition at 0.625 µM was determined as 99.1%. Moreover, in experiment [1] (setting [5]), the inhibition at […] is 99.1% and the inhibition at 10 µM was determined as 100%. In experiment [1] (setting [6]), the inhibition at 38.15 pM is 18.6%, the inhibition at 0.000152588 µM was 25.1%, the inhibition at 0.000610352 µM was 9.96% and the inhibition at 0.00244141 µM worked out at 26.8%. In experiment [1] (setting [6]), the inhibition at 0.00976562 µM was determined as 25.1%, the inhibition at 0.0390625 µM turned out to be 70.9%, the inhibition at 0.15625 µM turned out to be 98.1% and the inhibition at 0.625 µM was found to be 99.6%. For the same compound, in experiment [1] (setting [6]), the inhibition at […] was 99% and the inhibition at 10 µM was 99.6%. Further, the 50% inhibitory concentration (IC50) in experiment [2] was more than 10 µM. In experiment [3] (21 days), the TGI stood at 105%. Further, the “Tumor Volume D 1” value in experiment [3] (day 1) came to 174 mm^3. Besides, the “Tumor volume D 21” value in experiment [3] (day 21) is on record as 36 mm^3.
Consider `CCc1c(N2CCN(C(=O)c3ncccc3O)CC2)c(=O)n2nc(-c3ccc(C(C)=O)s3)nc2n1CC(=O)Nc1ccc(C(F)(F)F)cc1Cl` [P15], for which the IC50 was 0.0016 µM on WRN enzyme, 0.381 µM in experiment [1] and more than 10 µM in experiment [2].
The like results for `CCc1c(N2CCN(C(=O)c3ncccc3O)CC2)c(=O)n2nc(-c3ccc4c(c3)OCO4)nc2n1CC(=O)Nc1ccc(C(F)(F)F)cc1Cl` [P21] were, in that order, 0.0033 µM, 0.48 µM and more than 10 µM.
In the case of `CCc1c(N2CCN(C(=O)c3ncnc(C)c3O)CC2)c(=O)n2nc(-c3cc4c(s3)COC4)nc2n1CC(=O)Nc1ccc(C(F)(F)F)cc1F` [P32], the IC50 on WRN enzyme was 0.0015 µM; in experiment [1] it was 0.126 µM; in experiment [2], more than 10 µM.
Taken in the same sequence, the figures for `CCc1c(N2CCN(C(=O)c3ncccc3O)CC2)c(=O)n2nc(-c3[nH]nc4sccc34)nc2n1CC(=O)Nc1ccc(C(F)(F)F)cc1Cl` [P14] were 0.0044 µM, 0.097 µM and more than 10 µM.
Taken in the same sequence, the figures for `CCc1c(N2CCN(C(=O)c3ncccc3O)CC2)c(=O)n2nc(-c3cc4ccncc4s3)nc2n1CC(=O)Nc1ccc(C(F)(F)F)cc1Cl` [P17] were 0.0023 µM, 0.36 µM and more than 10 µM.
The like results for `CCc1c(N2CCN(C(=O)c3ncccc3O)CC2)c(=O)n2nc(-c3cnc(COC)s3)nc2n1CC(=O)Nc1ccc(C(F)(F)F)cc1Cl` [P33] were, in that order, 0.0018 µM, 0.139 µM and more than 10 µM.
For the compound `CCc1c(N2CCN(C(=O)c3ncnc(C)c3O)CC2)c(=O)n2nc(-c3cc4c(s3)COC4)nc2n1CC(=O)Nc1ccc(Br)cc1C` [P25], the IC50 was 0.0017 µM on WRN enzyme, 0.039 µM in experiment [1] and more than 10 µM in experiment [2].
Regarding `CCc1c(N2CCN(C(=O)c3ncccc3O)CC2)c(=O)n2nc(-c3cc4cnccc4s3)nc2n1CC(=O)Nc1ccc(C(F)(F)F)cc1Cl` [P18], the IC50 came out at 0.0018 µM against WRN enzyme, 0.499 µM in experiment [1] and 4.87 µM in experiment [2].
Regarding `CCc1c(N2CCN(C(=O)c3ncccc3O)CC2)c(=O)n2nc(-c3cnc(C(C)=O)s3)nc2n1CC(=O)Nc1ccc(C(F)(F)F)cc1Cl` [P12], the 50% inhibitory concentration (IC50) against WRN enzyme is 0.0094 µM; in experiment [1] it was 0.45 µM; in experiment [2], more than 10 µM.
